According to patent US20240082221A1, “COMPOSITIONS AND METHODS FOR THE IDENTIFICATION OF COMPOUNDS THAT PROTECT AGAINST LIPOFUSCIN CYTOTOXICITY” (priority 2021, published 2024):

Key:
CHOP = assay: Western blot of CHOP upregulation (UPR, downstream of PERK); assay type: cell-based, Human; conditions: cells incubated with A2E
Method: Immunoblotting. Total cell lysates were extracted using RIPA lysis buffer (50 mM TrisHCl, Ph 8.0, 150 mM NaCl, 1% NP40, 0.5% Sodium Deoxycholate, 0.1% SDS, protease-phosphatase inhibitor) after the incubation of the specific sample group in a 48 well plate. Sonication or syringing (20 times) was done followed by centrifugation at 12,000×g for 10 mins and the supernatant was collected and stored in −80° C. Proten concentration from homogenates were assessed by Pierce Rapid Gold BCA protein assay kit (ThermoFisher Scientific, cat.no. A53225). Then 30 μg of protein was analyzed by standard SDS-PAGE gel. Samples were mixed 4:1 (v:v) with Nupage loading buffer with or without 8% 0-mercaptoethanol and heated for 10 min at 72° C. SDS-PAGE was done using 4-12% Nupage gel and buffer (Life, NP0335BOX). Next, SDS-PAGE gel was transferred to nitrocellulose membrane (Whatman, PROTAN BA83) overnight at 20V. The following day, 5% milk in TBS was used for 2 h blocking the membrane and then primary antibody was added in TBST (TBS, 0.1% Tween-20) for overnight at 4° C. Next day membranes were washed and incubated for 2 hours at room temperature with HRP conjugated secondary antibody (cat #G21234, Invitrogen) at 1:10,000 dilution. After 3 more washed membranes were probed with enhanced chemiluminescence (ECL) reagent and detected using an X-ray films for chemiluminescence image (GE healthcare, RPN2106). Scanning/imaging and quantitation of the image was done using silverfast 8 application software and Fiji Image J. Antibodies for Western blotting were list in FIG. 10.

[1] = tested on: unfolded protein response (UPR) pathway; assay: RNAseq / Ingenuity Pathway Analysis of cells with dark LF cytotoxicity; assay type: cell-based, Human; conditions: cells with dark LF cytotoxicity vs cells rescued by treatment
Method: RNAseq. Cultured ARPE19 cells were treated with or without 15 uM A2E for 24 hours, then cells were harvested and total RNA extracted. […]. RNAseq profiles were analyzed further with Ingenuity Pathway Analysis (IPA, Qiagen).
To investigate the cellular processes leading to necroptosis, Ingenuity Pathway Analysis (IPA) was used to compare the transcriptomes of cells suffering of dark LF cytotoxicity with cells rescued by Nec7 treatment. […] The UPR is a conserved transcriptional response to the aberrant accumulation of misfolded proteins or lipids in the endoplasmic reticulum. UPR is elicited by three ER-resident sensors: PERK, IRE1α and […]. […] To evaluate the impact of UPR downregulation, the list of UPR transcripts inhibited by Nec7 was extracted and a new IPA analysis was performed for the downstream consequences (FIG. 5D).

cathepsin D = assay type: cell-based
Excerpt: Next, A2E buildups were imaged using a combination of DIC and fluorescence: A2E appeared as granules with well-defined edges, both within cells or after drying over a coverslip (FIGS. 14D and 14E). Next, the ability of the suspected A2E crystals to damage lysosomal membranes was investigated. A recently developed galectin-3 puncta assay for early detection of lysosomal membrane permeabilization (LMP) was used. Briefly, cytosolic galectin-3 rapidly binds to the glycocalyx in the luminal face of lysosomal membranes as they become leaky, which is easily detectable with anti-galectin high-affinity antibodies. L-Leucyl-L-Leucine methyl ester (LLO) a lysosomotropic peptide that causes LMP was used as positive control of puncta formation (FIG. 14E). […] LMP was confirmed by showing the […] of cathepsin D, as surrogate of lysosomal enzymes. […] Also, very remarkable was the observation that the same unique pattern of protection with arimoclomol and Nec-7 but not Nec-1 was observable for LLO (FIG. 14K), consistent with the idea that necroptosis by A2E is being caused by LMP.

## N=C1S/C(=C\c2cn[nH]c2-c2ccc(F)cc2)C(=O)N1c1nccs1 [Nec7, Necrostatin 7]
CHOP
  effect on LF-induced upregulation of CHOP / UPR: completely abrogated
[1]
  transcriptome pathway variation induced by treatment (IPA): inhibition of the unfolded protein response (UPR)
Cathepsin D
  effect on loss of cathepsin-D activity caused by A2E: prevented
